Reference: patent US20060286547A1, “Time-of-addition assay for identifying anti-viral compounds” (priority 2003, published 2006)

System: HIV-1 (strain 111B)
Test: Time-of-addition assay with luminescent cells in 96- and 384-well plates
Assay type: cell-based
Settings: early stages of addition; ATA 5 μM, AMD3100 and T20 1 μM; 96-well and 384-well plates; FIG. 6 and FIG. 7
Protocol: A MT4 cell line was used In the present example expressing a luciferase reporter gene under the control of a HIV-1-LTR promoter element. Cells were counted and a cell suspension of 500.000 ml or 350.000 ml was made for use in 96-well or 384 wells, respectively. The cells were centrifuged for 10 minutes at 400 g. Subsequently, cells were infected with at high multiplicity of infection with HIV-1 (strain 111B) at a host cell/virus titer of 1/1. Unabsorbed virus was removed by two washing steps in order to synchronize the infection. After the second washing step, cells were resuspended and the suspensions were distributed in the wells of a micro-titer plate in an amount of 95 μl or 36 μl in a 96-well or a 384 well format, respectively. At predefined time points 5 μl (96 well) and 4 μl (384 well) of compound was added. As compounds to be tested, reference compounds having well known mechanisms of action were included in the plates. […]
ATA was used in a concentration of 5 μM; AMD3100, T20 EFV ad SQV were used in a concentration of 1 μM and TMC143205 was used in a concentration of 1 μM. […] 100 μl Luc-lit™ substrate was added to each well and luminescence was monitored by processing the 96- and 384-well plates in a PerkinElmer-Viewlux™ within 30 minutes. HIV replication was quantified by measuring the luciferase signal.

Row | Structure (SMILES) | inhibitory activity as a function of time of addition
1 | c1cc(CN2CCCNCCNCCCNCC2)ccc1CN1CCCNCCNCCCNCC1 [AMD3100] | strong inhibitory activity
2 | O=C(O)C1=CC(=C(c2ccc(O)c(C(=O)O)c2)c2ccc(O)c(C(=O)O)c2)C=CC1=O [ATA] | strong inhibitory activity
